The kinase profiling compilation of Christmann-Franck et al. (2016)
One block for each molecule: values may come before it.

How the values were obtained:
TTK (human) [1] = molecular target: TTK (human) (UniProt P33981); assay: SelectScreen, TR FRET
SLK (human) = SLK (human) (UniProt Q9H2G2); assay: KINOMEscan competition binding; details: compound 10.0 µM
CLK2 (human) = CLK2 (human) (UniProt P49760); assay: KINOMEscan competition binding; details: compound 10.0 µM
CAMKK2 (human) = CAMKK2 (human) (UniProt Q96RR4); assay: KINOMEscan competition binding; details: compound 10.0 µM
PLK1 (human) = PLK1 (human) (UniProt P53350); assay: KINOMEscan competition binding; details: compound 10.0 µM
MYLK (human) = MYLK (human) (UniProt Q15746); assay: KINOMEscan competition binding; details: compound 10.0 µM
TNK1 (human) = TNK1 (human) (UniProt Q13470); assay: KINOMEscan competition binding; details: compound 10.0 µM
CAMK2A (human) = CAMK2A (human) (UniProt Q9UQM7); assay: KINOMEscan competition binding; details: compound 10.0 µM
PLK4 (human) = PLK4 (human) (UniProt O00444); assay: KINOMEscan competition binding; details: compound 10.0 µM
RPS6KA6 KD2 (human) = RPS6KA6 KD2 (human) (UniProt Q9UK32); assay: KINOMEscan competition binding; details: compound 10.0 µM
ALK (human) = ALK (human) (UniProt Q9UM73); assay: KINOMEscan competition binding; details: compound 10.0 µM
DCLK1 (human) = DCLK1 (human) (UniProt O15075); assay: KINOMEscan competition binding; details: compound 10.0 µM
MET (human) = MET (human) (UniProt P08581); assay: KINOMEscan competition binding; details: compound 10.0 µM
PLK3 (human) = PLK3 (human) (UniProt Q9H4B4); assay: KINOMEscan competition binding; details: compound 10.0 µM
MINK1 (human) = MINK1 (human) (UniProt Q8N4C8); assay: KINOMEscan competition binding; details: compound 10.0 µM
TTK (human) [2] = molecular target: TTK (human) (UniProt P33981); assay: KINOMEscan competition binding
STK33 (human) = STK33 (human) (UniProt Q9BYT3); assay: KINOMEscan competition binding; details: compound 10.0 µM
MAPK7 (human) = MAPK7 (human) (UniProt Q13164); assay: KINOMEscan competition binding; details: compound 10.0 µM
GAK (human) = GAK (human) (UniProt O14976); assay: KINOMEscan competition binding; details: compound 10.0 µM
RPS6KA2 KD2 (human) = RPS6KA2 KD2 (human) (UniProt Q15349); assay: KINOMEscan competition binding; details: compound 10.0 µM
DCLK2 (human) = DCLK2 (human) (UniProt Q8N568); assay: KINOMEscan competition binding; details: compound 10.0 µM
DAPK1 (human) = DAPK1 (human) (UniProt P53355); assay: KINOMEscan competition binding; details: compound 10.0 µM
PTK2 (human) = PTK2 (human) (UniProt Q05397); assay: KINOMEscan competition binding; details: compound 10.0 µM
DAPK3 (human) = DAPK3 (human) (UniProt O43293); assay: KINOMEscan competition binding; details: compound 10.0 µM
DAPK2 (human) = DAPK2 (human) (UniProt Q9UIK4); assay: KINOMEscan competition binding; details: compound 10.0 µM
CAMKK1 (human) = CAMKK1 (human) (UniProt Q8N5S9); assay: KINOMEscan competition binding; details: compound 10.0 µM
PRKD1 (human) = PRKD1 (human) (UniProt Q15139); assay: KINOMEscan competition binding; details: compound 10.0 µM
MAP2K3 (human) = MAP2K3 (human) (UniProt P46734); assay: KINOMEscan competition binding; details: compound 10.0 µM
PIM3 (human) = PIM3 (human) (UniProt Q86V86); assay: KINOMEscan competition binding; details: compound 10.0 µM
MYO3B (human) = MYO3B (human) (UniProt Q8WXR4); assay: KINOMEscan competition binding; details: compound 10.0 µM
PIM2 (human) [3] = molecular target: PIM2 (human) (UniProt Q9P1W9); assay: KINOMEscan competition binding; details: compound 10.0 µM
CDK16 (human) = CDK16 (human) (UniProt Q00536); assay: KINOMEscan competition binding; details: compound 10.0 µM
HIPK1 (human) = HIPK1 (human) (UniProt Q86Z02); assay: KINOMEscan competition binding; details: compound 10.0 µM
PIM1 (human) [4] = molecular target: PIM1 (human) (UniProt P11309); assay: KINOMEscan competition binding; details: compound 10.0 µM
PIM2 (human) [5] = molecular target: PIM2 (human) (UniProt Q9P1W9); assay: SelectScreen, TR FRET
PIM1 (human) [6] = molecular target: PIM1 (human) (UniProt P11309); assay: SelectScreen, TR FRET
TGFBR2 (human) = TGFBR2 (human) (UniProt P37173); assay: KINOMEscan competition binding; details: compound 10.0 µM
CSNK1E (human) = CSNK1E (human) (UniProt P49674); assay: KINOMEscan competition binding; details: compound 10.0 µM
[7] = molecular target: TYK2 JH2 pseudokinase (human) (UniProt P29597); assay: KINOMEscan competition binding; details: compound 10.0 µM
RPS6KA1 KD2 (human) = RPS6KA1 KD2 (human) (UniProt Q15418); assay: KINOMEscan competition binding; details: compound 10.0 µM
ACVR2B (human) = ACVR2B (human) (UniProt Q13705); assay: KINOMEscan competition binding; details: compound 10.0 µM
STK17A (human) = STK17A (human) (UniProt Q9UEE5); assay: KINOMEscan competition binding; details: compound 10.0 µM
TLK1 (human) = TLK1 (human) (UniProt Q9UKI8); assay: KINOMEscan competition binding; details: compound 10.0 µM
ANKK1 (human) = ANKK1 (human) (UniProt Q8NFD2); assay: KINOMEscan competition binding; details: compound 10.0 µM
GSK3A (human) = GSK3A (human) (UniProt P49840); assay: KINOMEscan competition binding; details: compound 10.0 µM
STK17B (human) = STK17B (human) (UniProt O94768); assay: KINOMEscan competition binding; details: compound 10.0 µM
STK24 (human) = STK24 (human) (UniProt Q9Y6E0); assay: KINOMEscan competition binding; details: compound 10.0 µM
MAP4K2 (human) = MAP4K2 (human) (UniProt Q12851); assay: KINOMEscan competition binding; details: compound 10.0 µM
MAP3K7 (human) = MAP3K7 (human) (UniProt O43318); assay: KINOMEscan competition binding; details: compound 10.0 µM
RIPK4 (human) = RIPK4 (human) (UniProt P57078); assay: KINOMEscan competition binding; details: compound 10.0 µM
DYRK1B (human) = DYRK1B (human) (UniProt Q9Y463); assay: KINOMEscan competition binding; details: compound 10.0 µM
[8] = molecular target: JAK1 JH2 pseudokinase (human) (UniProt P23458); assay: KINOMEscan competition binding; details: compound 10.0 µM
CSNK2A2 (human) = CSNK2A2 (human) (UniProt P19784); assay: KINOMEscan competition binding; details: compound 10.0 µM
MAPKAPK5 (human) = MAPKAPK5 (human) (UniProt Q8IW41); assay: KINOMEscan competition binding; details: compound 10.0 µM
GSK3B (human) = GSK3B (human) (UniProt P49841); assay: KINOMEscan competition binding; details: compound 10.0 µM

Sequence of TTK (human) (P33981 whole entry, looked up): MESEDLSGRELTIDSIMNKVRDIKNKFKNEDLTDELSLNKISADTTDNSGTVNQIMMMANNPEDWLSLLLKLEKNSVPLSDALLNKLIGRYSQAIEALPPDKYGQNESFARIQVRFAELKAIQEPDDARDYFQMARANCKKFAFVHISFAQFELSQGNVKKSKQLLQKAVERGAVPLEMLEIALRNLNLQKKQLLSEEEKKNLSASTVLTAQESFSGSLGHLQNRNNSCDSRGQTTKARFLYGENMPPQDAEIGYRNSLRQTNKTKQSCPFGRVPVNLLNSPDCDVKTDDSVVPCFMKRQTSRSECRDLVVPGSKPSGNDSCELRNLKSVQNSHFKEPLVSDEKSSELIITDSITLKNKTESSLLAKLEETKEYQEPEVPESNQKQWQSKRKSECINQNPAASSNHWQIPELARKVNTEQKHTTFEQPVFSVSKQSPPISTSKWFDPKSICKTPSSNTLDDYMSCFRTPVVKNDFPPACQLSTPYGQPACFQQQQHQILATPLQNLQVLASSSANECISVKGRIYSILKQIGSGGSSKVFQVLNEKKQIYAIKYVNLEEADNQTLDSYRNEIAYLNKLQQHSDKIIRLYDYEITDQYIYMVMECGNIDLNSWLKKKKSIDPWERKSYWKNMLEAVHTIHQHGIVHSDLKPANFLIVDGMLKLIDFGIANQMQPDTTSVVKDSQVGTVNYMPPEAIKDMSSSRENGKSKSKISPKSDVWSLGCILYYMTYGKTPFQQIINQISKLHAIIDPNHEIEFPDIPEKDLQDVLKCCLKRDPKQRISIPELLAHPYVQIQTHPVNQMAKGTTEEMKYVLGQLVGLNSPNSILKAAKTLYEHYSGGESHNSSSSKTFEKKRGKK
Sequence of PIM2 (human) (Q9P1W9 whole entry, looked up): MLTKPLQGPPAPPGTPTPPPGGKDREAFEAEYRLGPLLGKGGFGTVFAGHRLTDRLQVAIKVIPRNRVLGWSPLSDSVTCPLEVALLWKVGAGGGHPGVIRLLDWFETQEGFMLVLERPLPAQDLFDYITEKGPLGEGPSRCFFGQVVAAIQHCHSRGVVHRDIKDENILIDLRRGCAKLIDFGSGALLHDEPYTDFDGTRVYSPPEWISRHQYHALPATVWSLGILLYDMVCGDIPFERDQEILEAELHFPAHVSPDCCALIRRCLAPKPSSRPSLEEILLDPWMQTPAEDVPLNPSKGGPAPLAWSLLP
Sequence of PIM1 (human) (P11309 whole entry, looked up): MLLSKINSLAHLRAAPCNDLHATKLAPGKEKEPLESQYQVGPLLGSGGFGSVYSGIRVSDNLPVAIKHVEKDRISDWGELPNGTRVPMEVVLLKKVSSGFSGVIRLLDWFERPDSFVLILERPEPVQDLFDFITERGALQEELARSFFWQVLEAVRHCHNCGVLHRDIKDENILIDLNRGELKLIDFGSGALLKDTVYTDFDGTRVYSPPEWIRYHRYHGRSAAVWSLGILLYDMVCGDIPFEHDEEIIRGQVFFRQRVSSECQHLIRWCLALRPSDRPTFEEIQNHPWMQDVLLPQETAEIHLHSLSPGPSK
Sequence of DAPK2 (human) (Q9UIK4 whole entry, looked up): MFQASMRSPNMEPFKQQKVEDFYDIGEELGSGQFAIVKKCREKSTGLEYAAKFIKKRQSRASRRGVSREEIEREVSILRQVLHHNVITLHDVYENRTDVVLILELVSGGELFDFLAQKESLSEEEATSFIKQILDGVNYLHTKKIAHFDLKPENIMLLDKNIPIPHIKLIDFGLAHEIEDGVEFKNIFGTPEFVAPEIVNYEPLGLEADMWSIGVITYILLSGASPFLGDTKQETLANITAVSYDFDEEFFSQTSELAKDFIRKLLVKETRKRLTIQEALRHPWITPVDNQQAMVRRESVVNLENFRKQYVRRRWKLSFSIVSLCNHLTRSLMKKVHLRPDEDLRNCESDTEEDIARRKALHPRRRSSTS
Sequence of RPS6KA6 KD2 (human) (Q9UK32 whole entry, looked up): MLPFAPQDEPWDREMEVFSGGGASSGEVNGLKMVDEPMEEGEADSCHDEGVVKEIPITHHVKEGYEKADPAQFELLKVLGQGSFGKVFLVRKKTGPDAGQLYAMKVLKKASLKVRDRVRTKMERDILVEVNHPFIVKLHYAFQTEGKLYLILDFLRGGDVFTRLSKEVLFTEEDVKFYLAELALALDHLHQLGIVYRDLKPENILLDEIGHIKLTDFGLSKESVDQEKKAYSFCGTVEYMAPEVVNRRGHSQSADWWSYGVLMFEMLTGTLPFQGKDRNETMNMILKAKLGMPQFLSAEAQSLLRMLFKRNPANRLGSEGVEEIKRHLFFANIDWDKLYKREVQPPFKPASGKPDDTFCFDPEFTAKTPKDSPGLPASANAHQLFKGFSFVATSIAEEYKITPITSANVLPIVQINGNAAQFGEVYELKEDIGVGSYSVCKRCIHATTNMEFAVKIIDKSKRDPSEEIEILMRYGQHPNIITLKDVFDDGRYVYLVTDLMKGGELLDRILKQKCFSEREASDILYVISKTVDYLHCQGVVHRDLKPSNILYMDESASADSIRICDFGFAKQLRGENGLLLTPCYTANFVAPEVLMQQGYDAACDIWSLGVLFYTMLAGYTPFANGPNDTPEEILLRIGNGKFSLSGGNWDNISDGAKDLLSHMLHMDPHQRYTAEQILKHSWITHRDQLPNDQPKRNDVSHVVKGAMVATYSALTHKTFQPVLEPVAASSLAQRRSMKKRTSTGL
Sequence of HIPK1 (human) (Q86Z02 whole entry, looked up): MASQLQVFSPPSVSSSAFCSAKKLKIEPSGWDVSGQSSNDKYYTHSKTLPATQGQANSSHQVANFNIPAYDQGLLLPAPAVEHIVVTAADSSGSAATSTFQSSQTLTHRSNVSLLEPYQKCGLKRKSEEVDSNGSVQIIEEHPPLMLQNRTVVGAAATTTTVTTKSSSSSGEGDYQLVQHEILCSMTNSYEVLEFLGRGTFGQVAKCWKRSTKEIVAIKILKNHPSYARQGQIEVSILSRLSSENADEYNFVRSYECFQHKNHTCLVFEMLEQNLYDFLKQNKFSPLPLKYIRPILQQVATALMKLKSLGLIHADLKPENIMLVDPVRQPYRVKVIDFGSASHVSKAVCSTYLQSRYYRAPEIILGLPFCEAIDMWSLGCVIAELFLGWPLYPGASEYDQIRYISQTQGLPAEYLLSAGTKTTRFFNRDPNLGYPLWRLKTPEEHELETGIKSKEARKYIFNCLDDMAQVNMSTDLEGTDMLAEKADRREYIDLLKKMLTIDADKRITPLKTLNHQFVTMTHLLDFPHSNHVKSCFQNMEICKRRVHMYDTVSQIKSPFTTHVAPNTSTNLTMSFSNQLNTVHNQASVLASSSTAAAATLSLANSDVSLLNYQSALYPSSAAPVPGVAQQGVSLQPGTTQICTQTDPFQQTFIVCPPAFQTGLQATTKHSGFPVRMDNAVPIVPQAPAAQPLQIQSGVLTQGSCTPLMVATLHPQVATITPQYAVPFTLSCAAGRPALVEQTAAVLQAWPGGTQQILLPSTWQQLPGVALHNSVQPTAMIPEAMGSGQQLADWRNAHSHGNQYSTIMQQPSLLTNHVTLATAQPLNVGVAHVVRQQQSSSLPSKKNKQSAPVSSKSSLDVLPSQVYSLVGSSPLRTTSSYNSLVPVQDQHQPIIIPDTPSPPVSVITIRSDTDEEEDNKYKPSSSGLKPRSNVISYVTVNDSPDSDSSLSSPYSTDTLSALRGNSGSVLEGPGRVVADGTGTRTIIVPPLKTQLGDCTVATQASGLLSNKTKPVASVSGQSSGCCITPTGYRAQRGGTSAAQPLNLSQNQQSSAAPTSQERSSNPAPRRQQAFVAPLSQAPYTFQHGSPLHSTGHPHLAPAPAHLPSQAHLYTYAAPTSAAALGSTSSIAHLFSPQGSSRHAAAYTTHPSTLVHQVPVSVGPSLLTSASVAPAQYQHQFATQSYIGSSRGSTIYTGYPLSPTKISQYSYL
Sequence of CDK16 (human) (Q00536 whole entry, looked up): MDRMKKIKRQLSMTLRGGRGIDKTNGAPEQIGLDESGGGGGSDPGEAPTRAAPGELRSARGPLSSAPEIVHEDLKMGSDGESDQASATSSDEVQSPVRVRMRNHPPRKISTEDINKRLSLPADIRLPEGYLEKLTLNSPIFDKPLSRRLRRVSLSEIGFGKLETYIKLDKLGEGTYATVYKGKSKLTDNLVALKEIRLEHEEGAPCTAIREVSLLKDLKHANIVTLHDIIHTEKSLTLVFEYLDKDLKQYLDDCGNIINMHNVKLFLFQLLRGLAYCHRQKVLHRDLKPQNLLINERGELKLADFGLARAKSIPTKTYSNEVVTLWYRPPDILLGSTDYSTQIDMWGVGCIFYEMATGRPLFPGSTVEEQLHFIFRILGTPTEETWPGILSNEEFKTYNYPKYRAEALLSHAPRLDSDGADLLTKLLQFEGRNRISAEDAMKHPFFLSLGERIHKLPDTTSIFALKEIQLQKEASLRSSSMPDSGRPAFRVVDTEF
Sequence of RPS6KA2 KD2 (human) (Q15349 whole entry, looked up): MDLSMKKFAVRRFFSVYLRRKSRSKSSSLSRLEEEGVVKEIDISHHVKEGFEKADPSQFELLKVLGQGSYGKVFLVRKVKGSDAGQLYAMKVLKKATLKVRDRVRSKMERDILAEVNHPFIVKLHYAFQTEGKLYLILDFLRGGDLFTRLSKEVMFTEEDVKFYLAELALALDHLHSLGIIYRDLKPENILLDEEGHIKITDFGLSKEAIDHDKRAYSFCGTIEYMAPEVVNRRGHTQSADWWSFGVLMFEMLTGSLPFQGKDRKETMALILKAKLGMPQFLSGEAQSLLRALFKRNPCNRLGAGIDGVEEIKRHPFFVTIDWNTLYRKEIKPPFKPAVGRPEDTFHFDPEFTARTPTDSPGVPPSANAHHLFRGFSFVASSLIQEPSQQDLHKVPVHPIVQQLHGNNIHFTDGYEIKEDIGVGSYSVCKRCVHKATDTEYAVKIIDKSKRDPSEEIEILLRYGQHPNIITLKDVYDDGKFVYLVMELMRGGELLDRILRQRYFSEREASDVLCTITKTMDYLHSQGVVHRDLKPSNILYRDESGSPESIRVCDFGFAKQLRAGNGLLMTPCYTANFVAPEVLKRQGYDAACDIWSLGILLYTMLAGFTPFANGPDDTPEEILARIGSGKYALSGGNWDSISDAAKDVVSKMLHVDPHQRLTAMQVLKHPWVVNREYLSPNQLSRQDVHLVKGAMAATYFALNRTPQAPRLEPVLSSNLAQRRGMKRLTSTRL

IC50 (TTK (human) [1]): > 10000 nM | kinase still bound, per cent of control (SLK (human)): 2% | kinase still bound, per cent of control (CLK2 (human)): 15% | kinase still bound, per cent of control (CAMKK2 (human)): 7.6% | kinase still bound, per cent of control (PLK1 (human)): 22% | kinase still bound, per cent of control (MYLK (human)): 0.45% | kinase still bound, per cent of control (TNK1 (human)): 24% | kinase still bound, per cent of control (CAMK2A (human)): 20% | kinase still bound, per cent of control (PLK4 (human)): 16% | kinase still bound, per cent of control (RPS6KA6 KD2 (human)): 32% | kinase still bound, per cent of control (ALK (human)): 20% | kinase still bound, per cent of control (DCLK1 (human)): 3.4% | kinase still bound, per cent of control (MET (human)): 20% | kinase still bound, per cent of control (PLK3 (human)): 2.8% | kinase still bound, per cent of control (MINK1 (human)): 33% | Kd (TTK (human) [2]): 3920 nM | kinase still bound, per cent of control (TTK (human) [2]; compound 10.0 µM): 9.4% | kinase still bound, per cent of control (STK33 (human)): 7% | kinase still bound, per cent of control (MAPK7 (human)): 9.6% | kinase still bound, per cent of control (GAK (human)): 3.2% | kinase still bound, per cent of control (RPS6KA2 KD2 (human)): 34% | kinase still bound, per cent of control (DCLK2 (human)): 1.8% | kinase still bound, per cent of control (DAPK1 (human)): 7.2% | kinase still bound, per cent of control (PTK2 (human)): 17% | kinase still bound, per cent of control (DAPK3 (human)): 8.2% | kinase still bound, per cent of control (DAPK2 (human)): 21% | kinase still bound, per cent of control (CAMKK1 (human)): 33% | kinase still bound, per cent of control (PRKD1 (human)): 34%
SMILES: COc1cc(C(=O)NC2CCN(C)CC2)ccc1Nc1ncc2c(n1)N(C1CCCC1)CC(C)C(=O)N2C (configuration not stated)

kinase still bound, per cent of control (MAP2K3 (human)): 24% | kinase still bound, per cent of control (PIM3 (human)): 13% | kinase still bound, per cent of control (MYO3B (human)): 2.9% | kinase still bound, per cent of control (PIM2 (human) [3]): 6.2% | kinase still bound, per cent of control (CDK16 (human)): 32% | kinase still bound, per cent of control (HIPK1 (human)): 25% | kinase still bound, per cent of control (PIM1 (human) [4]): 16%
SMILES: N=C1NC(=O)/C(=C/c2cccc(-c3ccc(S(N)(=O)=O)cc3)c2)S1

IC50 (PIM2 (human) [5]): 115 nM | IC50 (PIM1 (human) [6]): 131 nM | kinase still bound, per cent of control (TGFBR2 (human)): 5.7% | kinase still bound, per cent of control (CSNK1E (human)): 15% | kinase still bound, per cent of control [7]: 8.8% | kinase still bound, per cent of control (RPS6KA1 KD2 (human)): 17% | kinase still bound, per cent of control (ACVR2B (human)): 33% | kinase still bound, per cent of control (STK17A (human)): 0.1% | kinase still bound, per cent of control (TLK1 (human)): 12% | kinase still bound, per cent of control (ANKK1 (human)): 25% | kinase still bound, per cent of control (GSK3A (human)): 18% | kinase still bound, per cent of control (STK17B (human)): 0.4% | kinase still bound, per cent of control (MAP2K3 (human)): 4.6% | kinase still bound, per cent of control (STK24 (human)): 23% | kinase still bound, per cent of control (MAP4K2 (human)): 26% | kinase still bound, per cent of control (MAP3K7 (human)): 2.6% | kinase still bound, per cent of control (PIM3 (human)): 8.2% | kinase still bound, per cent of control (PLK4 (human)): 3.8% | kinase still bound, per cent of control (RPS6KA6 KD2 (human)): 22% | kinase still bound, per cent of control (PIM2 (human) [3]): 0.65% | kinase still bound, per cent of control (RPS6KA2 KD2 (human)): 26% | kinase still bound, per cent of control (CDK16 (human)): 24% | kinase still bound, per cent of control (RIPK4 (human)): 1.3% | kinase still bound, per cent of control (DAPK1 (human)): 12% | kinase still bound, per cent of control (DYRK1B (human)): 10% | kinase still bound, per cent of control (HIPK1 (human)): 0.25% | kinase still bound, per cent of control (DAPK2 (human)): 24% | kinase still bound, per cent of control [8]: 32% | kinase still bound, per cent of control (CSNK2A2 (human)): 33% | kinase still bound, per cent of control (MAPKAPK5 (human)): 12% | kinase still bound, per cent of control (GSK3B (human)): 34% | kinase still bound, per cent of control (PIM1 (human) [4]): 6.4%
SMILES: N=C1NC(=O)/C(=C/c2ccc(-c3ccc4c(C(=O)Nc5ccc(N6CCNCC6)cc5)cccc4c3)o2)S1
